Literature values as cited in patent publication US8092782B2, “Polybiotin compounds of magnetic resonance imaging and drug delivery” (priority 2003, dated 2012).

## triacetyl-beta-cyclodextrin
  solubility in water: insoluble
